23 compounds from patent US9624214B2, “Amino-substituted imidazo[1,2-a]pyridinecarboxamides and their use” (BAYER PHARMA AKTIENGESELLSCHAFT, priority 2012, dated 2017) can be followed below.

Where a name gives a salt, the structure may show the parent alone.

The test has as its target T1, recombinant guanylate cyclase reporter cell line (Rattus norvegicus, UniProt P19686+P20595).
T1 construct: expressed in transfected cells
T1 sequence (P20595 1-619): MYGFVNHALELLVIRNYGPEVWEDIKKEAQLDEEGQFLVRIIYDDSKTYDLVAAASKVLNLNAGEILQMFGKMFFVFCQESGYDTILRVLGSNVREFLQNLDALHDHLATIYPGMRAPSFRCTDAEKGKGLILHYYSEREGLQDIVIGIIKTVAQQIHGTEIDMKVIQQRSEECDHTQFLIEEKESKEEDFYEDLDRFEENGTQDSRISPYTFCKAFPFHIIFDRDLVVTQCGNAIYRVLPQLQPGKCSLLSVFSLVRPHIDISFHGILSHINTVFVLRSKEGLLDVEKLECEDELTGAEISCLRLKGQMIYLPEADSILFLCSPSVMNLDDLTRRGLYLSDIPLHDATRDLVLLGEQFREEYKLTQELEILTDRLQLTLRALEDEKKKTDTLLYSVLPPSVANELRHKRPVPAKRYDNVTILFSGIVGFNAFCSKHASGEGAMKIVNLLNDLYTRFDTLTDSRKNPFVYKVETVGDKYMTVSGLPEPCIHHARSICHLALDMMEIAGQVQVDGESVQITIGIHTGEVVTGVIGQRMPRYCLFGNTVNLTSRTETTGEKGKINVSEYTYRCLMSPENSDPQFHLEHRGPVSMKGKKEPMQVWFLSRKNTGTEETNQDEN
T1 sequence (P19686 1-690): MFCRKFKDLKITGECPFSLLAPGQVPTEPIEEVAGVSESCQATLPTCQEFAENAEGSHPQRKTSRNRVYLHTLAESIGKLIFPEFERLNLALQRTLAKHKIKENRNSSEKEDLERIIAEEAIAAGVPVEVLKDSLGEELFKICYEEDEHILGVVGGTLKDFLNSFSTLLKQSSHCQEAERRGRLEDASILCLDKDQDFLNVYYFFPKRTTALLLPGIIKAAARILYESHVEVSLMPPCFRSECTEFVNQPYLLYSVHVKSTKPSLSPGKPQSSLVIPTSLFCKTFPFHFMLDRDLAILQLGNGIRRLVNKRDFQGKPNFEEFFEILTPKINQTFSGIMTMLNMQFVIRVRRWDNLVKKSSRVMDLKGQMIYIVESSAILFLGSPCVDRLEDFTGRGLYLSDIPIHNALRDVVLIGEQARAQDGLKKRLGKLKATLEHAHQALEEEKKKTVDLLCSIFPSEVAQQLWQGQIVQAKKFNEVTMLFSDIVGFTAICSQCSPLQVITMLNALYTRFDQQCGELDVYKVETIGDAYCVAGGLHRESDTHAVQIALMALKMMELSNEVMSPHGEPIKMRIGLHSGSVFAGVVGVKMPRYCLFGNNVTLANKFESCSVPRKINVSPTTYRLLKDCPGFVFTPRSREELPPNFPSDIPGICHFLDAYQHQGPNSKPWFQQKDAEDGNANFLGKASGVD
Description: B-2. Action on recombinant guanylate cyclase reporter cell line. In kind it is cell-based. The note with it: MEC = minimal effective concentration; in some cases mean values from individual determinations. An outline of the steps:
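MEC values, meaning the lowest concentration producing a detectable response, were taken from a recombinant cyclase reporter cell assay. Where repeated, individual determinations were averaged.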

Turning to `Cc1cc(OCCC(C(F)(F)F)C(F)(F)F)c2nc(C)c(C(=O)NCC(C)(N)CC(C)C)n2c1` (racemic) [Example 258, rac-N-(2-Amino-2,4-dimethylpentyl)-2,6-dimethyl-8-[4,4,4-trifluoro-3-(trifluoromethyl)butoxy]-imidazo[1,2-a]pyridine-3-carboxamide], the MEC worked out at 1.00 µM.

Consider `Cc1cc(OCc2c(F)cccc2F)c2nc(C)c(C(=O)NCC(C)(N)C3CC3)n2c1` (racemic) [Example 259, rac-N-(2-Amino-2-cyclopropylpropyl)-8-[(2,6-difluorobenzyl)oxy]-2,6-dimethylimidazo[1,2-a]-pyridine-3-carboxamide], for which the MEC stood at 0.03 µM. With `Cc1cc(OCc2c(F)cccc2F)c2nc(C)c(C(=O)NCC(C)(N)CCOCc3ccccc3)n2c1` (racemic) [Example 262, rac-N-[2-Amino-4-(benzyloxy)-2-methylbutyl]-8-[(2,6-difluorobenzyl)oxy]-2,6-dimethylimidazo-[1,2-a]pyridine-3-carboxamide] the figure was 0.10 µM; with `Cc1nc2c(OCc3c(F)cccc3F)cccn2c1C(=O)NCC(C)(N)COCc1ccccc1` (racemic) [Example 263, rac-N-[2-amino-3-(benzyloxy)-2-methylpropyl]-8-[(2,6-difluorobenzyl)oxy]-2-methylimidazo[1,2-a]pyridine-3-carboxamide], 1.00 µM; with `Cc1nc2c(OCc3c(F)cccc3F)cccn2c1C(=O)NCC(C)(N)CCOCc1ccccc1` (racemic) [Example 264, rac-N-[2-amino-4-(benzyloxy)-2-methylbutyl]-8-[(2,6-difluorobenzyl)oxy]-2-methylimidazo[1,2-a]pyridine-3-carboxamide], 0.03 µM. Turning to `Cc1cc(OCc2c(F)cccc2F)c2nc(C)c(C(=O)NCC(C)(N)COCc3ccccc3)n2c1` (racemic) [Example 265, rac-N-[2-amino-3-(benzyloxy)-2-methylpropyl]-8-[(2,6-difluorobenzyl)oxy]-2,6-dimethylimidazo[1,2-a]pyridine-3-carboxamide], the MEC worked out at 0.30 µM. With `Cc1cc(OCc2c(F)cccc2F)c2nc(C)c(C(=O)NCC(C)(N)CCO)n2c1` (racemic) [Example 270, rac-N-(2-Amino-4-hydroxy-2-methylbutyl)-8-[(2,6-difluorobenzyl)oxy]-2,6-dimethylimidazo[1,2-a]pyridine-3-carboxamide] the figure was 1.00 µM; with `Cc1nc2c(OCc3c(F)cccc3F)cccn2c1C(=O)NCC(C)(N)CO` (racemic) [Example 273, rac-N-(2-Amino-3-hydroxy-2-methylpropyl)-8-[(2,6-difluorobenzyl)oxy]-2-methylimidazo[1,2-a]-pyridine-3-carboxamide], 1.00 µM. With `CCCC(C)(N)CNC(=O)c1c(C)nc2c(OCc3c(F)cccc3F)c(F)ccn12` (racemic) [Example 277, rac-N-(2-Amino-2-methylpentyl)-8-[(2,6-difluorobenzyl)oxy]-7-fluoro-2-methylimidazo[1,2-a]-pyridine-3-carboxamide] the figure was 1.00 µM. On to `Cc1cc(OCc2c(F)cccc2F)c2nc(C)c(C(=O)NCC(C)(N)CF)n2c1` (racemic) [Example 282, rac-N-(2-amino-3-fluoro-2-methylpropyl)-8-[(2,6-difluorobenzyl)oxy]-2,6-dimethylimidazo[1,2-a]pyridine-3-carboxamide Formate], for which the MEC came to 0.3 µM.

`CCCC(C)(N)CNC(=O)c1c(C)nc2c(OCc3c(F)ccc(F)c3F)cc(C)cn12` (racemic) [Example 293, rac-N-(2-amino-2-methylpentyl)-2,6-dimethyl-8-[(2,3,6-trifluorobenzyl)oxy]imidazo[1,2-a]pyridine-3-carboxamide]: the MEC was determined as 0.03 µM. In the case of `Cc1cc(OCc2c(F)cccc2F)c2nc(C)c(C(=O)NCC(C)(N)Cc3ccc(F)cc3)n2c1` (racemic) [Example 296, rac-N-[2-amino-3-(4-fluorophenyl)-2-methylpropyl]-8-[(2,6-difluorobenzyl)oxy]-2,6-dimethylimidazo[1,2-a]pyridine-3-carboxamide], the MEC was 0.10 µM.

Consider `Cc1cc(OCc2c(F)cccc2F)c2nc(C)c(C(=O)NCC(C)(N)Cc3ccccn3)n2c1` (racemic) [Example 297, rac-N-[2-amino-2-methyl-3-(pyridin-2-yl)propyl]-8-[(2,6-difluorobenzyl)oxy]-2,6-dimethylimidazo[1,2-a]pyridine-3-carboxamide], for which the MEC was determined as 0.10 µM. With `Cc1cc(OCc2c(F)cccc2F)c2nc(C)c(C(=O)NC3CCNCC3(F)F)n2c1` (racemic) [Example 299, rac-8-[(2,6-difluorobenzyl)oxy]-N-(3,3-difluoropiperidin-4-yl)-2,6-dimethylimidazo[1,2-a]pyridine-3-carboxamide], the MEC worked out at 0.10 µM. With `CCCC(C)(N)CNC(=O)c1c(CC)nc2c(OCc3c(F)cccc3F)cc(C)cn12` (racemic) [Example 301, rac-N-(2-amino-2-methylpentyl)-8-[(2,6-difluorobenzyl)oxy]-2-ethyl-6-methylimidazo[1,2-a]pyridine-3-carboxamide], the MEC worked out at 0.10 µM.

In the case of `Cc1cc(OCc2c(F)cccc2F)c2nc(C)c(C(=O)NC3CCNC(C(F)(F)F)C3)n2c1` (racemic) [Example 302, rac-8-[(2,6-difluorobenzyl)oxy]-2,6-dimethyl-N-[2-(trifluoromethyl)piperidin-4-yl]imidazo[1,2-a]pyridine-3-carboxamide], the MEC came to 0.10 µM. With `CCCC(C)(N)CNC(=O)c1c(C)nc2c(OCc3cccc(F)c3F)cc(C)cn12` (racemic) [Example 303, rac-N-(2-amino-2-methylpentyl)-8-[(2,3-difluorobenzyl)oxy]-2,6-dimethylimidazo[1,2-a]pyridine-3-carboxamide] the figure was 0.20 µM. With `Cc1cc(OCc2c(F)cccc2F)c2nc(C)c(C(=O)NCC(C)(N)Cc3nc4ccccc4s3)n2c1` (racemic) [Example 310, rac-N-[2-amino-3-(1,3-benzothiazol-2-yl)-2-methylpropyl]-8-[(2,6-difluorobenzyl)oxy]-2,6-dimethylimidazo[1,2-a]pyridine-3-carboxamide] the figure was 0.30 µM. With `CCCC(C)(N)CNC(=O)c1c(C)nc2c(OCc3c(F)c(F)cc(F)c3F)cc(C)cn12` (racemic) [Example 311, rac-N-(2-amino-2-methylpentyl)-2,6-dimethyl-8-[(2,3,5,6-tetrafluorobenzyl)oxy]imidazo[1,2-a]pyridine-3-carboxamide] the figure was 0.30 µM; with `Cc1cc(OCc2c(F)cccc2F)c2nc(C)c(C(=O)NC3CNCC(F)(F)C3)n2c1` (racemic) [Example 312, rac-8-[(2,6-difluorobenzyl)oxy]-N-(5,5-difluoropiperidin-3-yl)-2,6-dimethylimidazo[1,2-a]pyridine-3-carboxamide], 0.30 µM; with `Cc1cc(OCc2c(F)cccc2F)c2nc(C)c(C(=O)NC3CCCCNC3)n2c1` (racemic) [Example 316, rac-N-(azepan-3-yl)-8-[(2,6-difluorobenzyl)oxy]-2,6-dimethylimidazo[1,2-a]pyridine-3-carboxamide], 0.30 µM. Regarding `CCCC(C)(N)CNC(=O)c1c(C)nc2c(OCc3cccc(C)c3F)cc(C)cn12` (racemic) [Example 317, rac-N-(2-amino-2-methylpentyl)-8-[(2-fluoro-3-methylbenzyl)oxy]-2,6-dimethylimidazo[1,2-a]pyridine-3-carboxamide], the MEC amounted to 0.30 µM. With `Cc1cc(OCc2c(F)cccc2F)c2nc(C)c(C(=O)NC3(C)CC3(C)N)n2c1` (racemic) [Example 320, rac-N-(2-amino-1,2-dimethylcyclopropyl)-8-[(2,6-difluorobenzyl)oxy]-2,6-dimethylimidazo[1,2-a]pyridine-3-carboxamide (Racemate)] the figure was 0.30 µM.
